These results are taken from US11026936B2, “Piperidinyl-propanone derivatives” (Merck Patent GmbH, priority 2016, dated 2021).

The target in one assay is PDHK2 (Homo sapiens (Human), UniProt Q15119). Kind of assay: Biochemical activity testing of PDHK2: PDC inactivation assay. The conditions noted are these: human rec PDHK2, PDC from porcine heart, ATP 5 μM; read-out: IC50 PDHK2 (enzyme assay). From the text: Biochemical Activity Testing of PDHK2: PDC Inactivation Assay
The biochemical activity assay for PDHK2 is based on the inactivation of PDC through phosphorylation by PDHK2. The assay is run in two steps: the enzymatic PDHK2 reaction in which isolated PDC is phosphorylated by PDHK2 with ATP as co-substrate and the PDC activity assay in which pyruvate and NAD are converted to acetyl-CoA and NADH. The PDC activity correlates to the increase in NADH and thereby is detectable directly via the increasing fluorescence signal (Exc 340 nm, Em 450 nm). Inhibition of PDHK2 results in a lower phosphorylation status and thereby a less decrease in activity of PDC and a stronger increase in NADH fluorescence signal.
The PDC inactivation assay is performed in Greiner 384-well microtiter plates and is used for high throughput screen. 4 μl of PDHK2 (human, rec, Carna Bioscience, 10 ng/μl-137 nM final concentration) and PDC (isolated from porcine heart, Sigma-Aldrich, 20 mU/ml final concentration) are incubated in the absence or presence of the test compound (10 dilution concentrations) for 30 min at room temperature in kinase buffer (15 mM potassium phosphate buffer, pH 7.0, 60 mM KCl, 1.5 mM DTT, 2.5 mM MgCl2, 0.0125% (w/v) BSA, 0.125% Pluronic F-68). The kinase reaction is started by the addition of 4 μl ATP substrate solution (fc 5 μM in kinase buffer). After 30 min incubation at 37° C. 40 μl of PDC reaction solution (100 mM Tris/HCl, pH 7.8, 0.5 mM EDTA, 1 mM MgCl2, 50 mM NaF, 0.25 mM Coenzyme A, 5 mM pyruvate, 1 mM NAD, 5 mM DTT, 1 mM thiamine pyrophosphate) is added. The first fluorescence measurement is performed on a Perkin Elmer Envision (Exc 340 nm, Em 450 nm). The reaction is incubated for 45 min at room temperature. Afterwards a second fluorescence measurement is performed and the PDC activity is calculated by the difference between both measurements. As full value for the PDHK2 assay the inhibitor-free PDHK2 reaction is used. The pharmacological zero value used is DCA (Sigma-Aldrich) in a final concentration of 3 mM. The inhibitory values (IC50) were determined using either the program Symyx Assay Explorer® or Condosseo® from GeneData.

Assay [1] has as its system PDH-E1alpha (pSer300) in HEK293T cells. Kind of assay: Cellular immunofluorescence assay, PDH-E1alpha (pSer300). It counts as cell-based. The following applies: Homo sapiens, HEK-293T, 5 hours incubation, read-out: IC50 (cell data). The method, then: Cellular Assay for Determination of Compound Activities
Compound activities were determined in a cellular immunofluorescence assay. Human HEK293T cells were seeded into black 384-well plates with clear bottom and grown overnight.
Next day, test compounds were added to the wells and the plates incubated for 5 hours. Following this, cells were fixed with formaldehyde, permeabilised and blocked. The primary antibody, Anti-PDH-E1alpha (pSer300), AP1064 (Merck Millipore) was added and incubated overnight in the plate wells. Next, cells were washed and the seconday antibody, Alexa Fluor 488, goat anti-rabbit ab (A-11008, Invitrogen) was added together with Hoechst 33258 (H3569, Invitrogen) and incubated for 1 hour in the plate wells. Finally, cells were washed and the plates were measured on the laser scanning cytometer acumen hci (TTpLabtech).
The raw data were normalized against a pharmacological inhibitor control and dose response curves were generated by plotting the percent effect values using the software package Genedata screener (Genedata).

A further assay addresses human PDHK2 (12-407) (Homo sapiens (Human), UniProt Q15119). Kind of assay: Isothermal titration calorimetry (ITC) binding. The conditions noted are these: 30° C., pH 7.5. The method, then: Isothermal Titration Calorimetry
ITC measurements were performed with a VP-ITC micro calorimeter (Microcal, LLC/GE Healthcare Bio-Sciences AB, Uppsala, Sweden). In general titrations were performed by titrating the protein (50 μM) to the test compound (5 μM) in 12 μl injections. All binding experiments were carried out at 30° C. In general the test compounds were diluted form DMSO stock solutions into the measurement buffer with a maximum final concentration of 1% DMSO. The measurement buffer was 20 mM HEPES, 135 mM KCl, 1 mM TCEP, 2 mM MgCl2, 15 mM NaH2PO4, pH 7.5. The human PDHK2 (12-407) was produced in E. coli as his-tagged protein and purified by affinity chromatography. The tag was removed by side specific proteolysis. Before titration the protein buffer was changed to the measurement buffer containing the same DMSO concentration as the test compound dilution. ITC data analysis was performed using Origin 7 calorimetry software from the same supplier. For most measurements a binding model of one binding site was assumed. According to the applied mathematical model it is possible to calculate the binding constant (KA), the observed binding enthalpy (ΔH^obs) as well as the stoichiometry (N) of the formed complex. Preceding analysis the raw data was corrected for the heats of dilution by extrapolating from the saturation value from the end of titration. In order to allow for direct comparison between the respective experimental series and protein preparations the protein concentration was corrected by referencing titrations to a well behaved standard inhibitor. The apparent stoichiometry values defined the fraction of binding competent protein and compensated for relative errors in protein concentration measurements. This corrected protein concentration was used to set up ITC experiment series with test compounds. Any deviations from ideal 1:1 stoichiometry observed here were attributed to errors in compound concentration. This nominal compound concentration was corrected as well to achieve 1:1 stoichiometry in the fit.
On the technique in general: Isothermal titration calorimetry measures the heat released or taken up as one component is titrated into another.

One may read the IC50 as the midpoint of a concentration-inhibition curve. As a reminder, the Kd is the equilibrium constant for the complex coming apart. Higher therefore signals lower affinity.

`CC(C)(c1nnc(C2CCCCC2)[nH]1)C1CCN(C(=O)[C@@](C)(O)C(F)(F)F)CC1` [Compound A4, (R)-1-{4-[1-(5-Cyclohexyl-4H-[1,2,4]triazol-3-yl)-1-methyl-ethyl]-piperidin-1-yl}-3,3,3-trifluoro-2-hydroxy-2-methyl-propan-1-one]: the IC50 on PDHK2 came out at 1.4 µM; in assay [1], 3.9 µM. On human PDHK2 (12-407), the Kd is 0.29 µM.

Take `CC1CN(C(=O)[C@@](C)(O)C(F)(F)F)CCC1C1(c2nnc(-c3ccccc3)o2)CC1` (stereo partly drawn) [Compound A12, (R)-3,3,3-Trifluoro-2-hydroxy-2-methyl-1-{3-methyl-4-[1-(5-phenyl-[1,3,4]oxadiazol-2-yl)-cyclopropyl]-piperidin-1-yl}-propan-1-one]: the values for the IC50 (on PDHK2; in assay [1]) were 0.27 µM and 0.056 µM, respectively. In addition, at human PDHK2 (12-407), the equilibrium dissociation constant (Kd) turned out to be 0.0087 µM. In the case of `C[C@@H]1CN(C(=O)[C@@](C)(O)C(F)(F)F)CC[C@@H]1C1(c2nnc(-c3ccc(F)cc3)[nH]2)CC1` [Compound A19, (R)-3,3,3-Trifluoro-1-((3S,4S)-4-{1-[5-(4-fluoro-phenyl)-4H-[1,2,4]triazol-3-yl]-cyclopropyl}-3-methyl-piperidin-1-yl)-2-hydroxy-2-methyl-propan-1-one], the figures for the IC50 (on PDHK2; in assay [1]) were 0.075 µM and 0.028 µM, respectively. On human PDHK2 (12-407), this compound had an equilibrium dissociation constant (Kd) of 0.0042 µM. `C[C@H]1CN(C(=O)[C@@](C)(O)C(F)(F)F)CC[C@H]1C1(c2nnc(-c3ccc(Cl)cc3)[nH]2)CC1` [Compound A33, (R)-1-((3R,4R)-4-{1-[5-(4-Chloro-phenyl)-4H-[1,2,4]triazol-3-yl]-cyclopropyl}-3-methyl-piperidin-1-yl)-3,3,3-trifluoro-2-hydroxy-2-methyl-propan-1-one]: the half-inhibitory concentration (IC50) on PDHK2 is 18 µM. For the compound `CC(C)(C)c1nnc(C2(C3CCN(C(=O)[C@@](C)(O)C(F)(F)F)CC3)CC2)o1` [Compound A8, (R)-1-{4-[1-(5-tert-Butyl-[1,3,4]oxadiazol-2-yl)-cyclopropyl]-piperidin-1-yl}-3,3,3-trifluoro-2-hydroxy-2-methyl-propan-1-one], the values for the IC50 (on PDHK2; in assay [1]) were 2.4 µM and 8.7 µM, respectively. The same compound yielded a Kd on human PDHK2 (12-407) of 0.65 µM.

For `Cc1ccc(-c2nnc(C3([C@@H]4CCN(C(=O)[C@@](C)(O)C(F)(F)F)C[C@@H]4C)CC3)o2)cc1` [Compound A24, (R)-3,3,3-Trifluoro-2-hydroxy-2-methyl-1-{(3R,4R)-3-methyl-4-[1-(5-p-tolyl-[1,3,4]oxadiazol-2-yl)-cyclopropyl]-piperidin-1-yl}-propan-1-one], the IC50 on PDHK2 turned out to be 7.3 µM. Same read-out and setting: under `COc1ccc(-c2nnc(C3([C@@H]4CCN(C(=O)[C@@](C)(O)C(F)(F)F)C[C@@H]4C)CC3)[nH]2)cc1` [Compound A27, (R)-3,3,3-Trifluoro-2-hydroxy-1-((3R,4R)-4-{1-[5-(4-methoxy-phenyl)-4H-[1,2,4]triazol-3-yl]-cyclopropyl}-3-methyl-piperidin-1-yl)-2-methyl-propan-1-one] stands 13 µM. For the compound `C[C@H]1CN(C(=O)[C@@](C)(O)C(F)(F)F)CC[C@H]1C1(c2nnc(-c3ccccc3)o2)CC1` (stereo in doubt) [Compound A15, (R)-3,3,3-Trifluoro-2-hydroxy-2-methyl-1-{(S)-3-methyl-4-[1-(5-phenyl-[1,3,4]oxadiazol-2-yl)-cyclopropyl]-piperidin-1-yl}-propan-1-one], the values for the IC50 (at PDHK2; in assay [1]) were 11 µM and 7.3 µM, respectively. Consider `COc1ccc(-c2nnc(C3([C@@H]4CCN(C(=O)[C@@](C)(O)C(F)(F)F)C[C@@H]4C)CC3)[nH]2)cn1` [Compound A39, (R)-3,3,3-Trifluoro-2-hydroxy-1-((3R,4R)-4-{1-[5-(6-methoxy-pyridin-3-yl)-4H-[1,2,4]triazol-3-yl]-cyclopropyl}-3-methyl-piperidin-1-yl)-2-methyl-propan-1-one], for which, at PDHK2, the 50% inhibitory concentration (IC50) amounted to 6 µM. Take `C[C@H]1CN(C(=O)[C@@](C)(O)C(F)(F)F)CC[C@H]1C1(c2nnc(-c3ccc(Cl)cc3)o2)CC1` [Compound A36, (R)-1-((3R,4R)-4-{1-[5-(4-Chloro-phenyl)-[1,3,4]oxadiazol-2-yl]-cyclopropyl}-3-methyl-piperidin-1-yl)-3,3,3-trifluoro-2-hydroxy-2-methyl-propan-1-one]: at PDHK2, the IC50 is 8.2 µM.

For the compound `C[C@@](O)(C(=O)N1CCC(C2(c3nnc(-c4ccc(F)cc4)[nH]3)CC2)CC1)C(F)(F)F` [Compound A2, (R)-3,3,3-Trifluoro-1-{4-{1-[5-(4-fluorophenyl)-4H-[1,2,4]triazol-3-yl]-cyclopropyl}-piperidin-1-yl}-2-hydroxy-2-methyl-propan-1-one], in assay [1], the IC50 was found to be 2 µM. At human PDHK2 (12-407), this compound registered a Kd of 0.18 µM.

Consider `Cc1ccc(-c2nnc(C3([C@@H]4CCN(C(=O)[C@@](C)(O)C(F)(F)F)C[C@@H]4C)CC3)[nH]2)cc1` [Compound A21, (R)-3,3,3-Trifluoro-2-hydroxy-2-methyl-1-{(3R,4R)-3-methyl-4-[1-(5-p-tolyl-4H-[1,2,4]triazol-3-yl)-cyclopropyl]-piperidin-1-yl}-propan-1-one], for which, at PDHK2, the IC50 was found to be 4.9 µM. Same read-out and setting: under `C[C@H]1CN(C(=O)[C@@](C)(O)C(F)(F)F)CC[C@H]1C1(c2nnc(-c3ccccc3)[nH]2)CC1` [Compound A13, (R)-3,3,3-Trifluoro-2-hydroxy-2-methyl-1-{(3R,4R)-3-methyl-4-[1-(5-phenyl-4H-[1,2,4]triazol-3-yl)-cyclopropyl]-piperidin-1-yl}-propan-1-one] stands 6.6 µM; under `C[C@H]1CN(C(=O)[C@@](C)(O)C(F)(F)F)CC[C@H]1C1(c2nnc(-c3ccc(F)cc3)[nH]2)CC1` [Compound A18, (R)-3,3,3-Trifluoro-1-((3R,4R)-4-{1-[5-(4-fluoro-phenyl)-4H-[1,2,4]triazol-3-yl]-cyclopropyl}-3-methyl-piperidin-1-yl)-2-hydroxy-2-methyl-propan-1-one], 2.6 µM; under `COc1ccc(-c2nnc(C3([C@@H]4CCN(C(=O)[C@@](C)(O)C(F)(F)F)C[C@@H]4C)CC3)o2)cc1` [Compound A30, (R)-3,3,3-Trifluoro-2-hydroxy-1-((3R,4R)-4-{1-[5-(4-methoxy-phenyl)-[1,3,4]oxadiazol-2-yl]-cyclopropyl}-3-methyl-piperidin-1-yl)-2-methyl-propan-1-one], 1.9 µM.
